Results reported in patent publication US20260159521A1, “RET-LDD PROTEIN INHIBITORS” (Bristol-Myers Squibb Company, priority 2022, published 2026).

Molecular target: RET kinase (Homo sapiens, UniProt P07949)
Test: time resolved FRET-based competition binding assay (RET HTRF)

Sequence of RET kinase (P07949 29-1114): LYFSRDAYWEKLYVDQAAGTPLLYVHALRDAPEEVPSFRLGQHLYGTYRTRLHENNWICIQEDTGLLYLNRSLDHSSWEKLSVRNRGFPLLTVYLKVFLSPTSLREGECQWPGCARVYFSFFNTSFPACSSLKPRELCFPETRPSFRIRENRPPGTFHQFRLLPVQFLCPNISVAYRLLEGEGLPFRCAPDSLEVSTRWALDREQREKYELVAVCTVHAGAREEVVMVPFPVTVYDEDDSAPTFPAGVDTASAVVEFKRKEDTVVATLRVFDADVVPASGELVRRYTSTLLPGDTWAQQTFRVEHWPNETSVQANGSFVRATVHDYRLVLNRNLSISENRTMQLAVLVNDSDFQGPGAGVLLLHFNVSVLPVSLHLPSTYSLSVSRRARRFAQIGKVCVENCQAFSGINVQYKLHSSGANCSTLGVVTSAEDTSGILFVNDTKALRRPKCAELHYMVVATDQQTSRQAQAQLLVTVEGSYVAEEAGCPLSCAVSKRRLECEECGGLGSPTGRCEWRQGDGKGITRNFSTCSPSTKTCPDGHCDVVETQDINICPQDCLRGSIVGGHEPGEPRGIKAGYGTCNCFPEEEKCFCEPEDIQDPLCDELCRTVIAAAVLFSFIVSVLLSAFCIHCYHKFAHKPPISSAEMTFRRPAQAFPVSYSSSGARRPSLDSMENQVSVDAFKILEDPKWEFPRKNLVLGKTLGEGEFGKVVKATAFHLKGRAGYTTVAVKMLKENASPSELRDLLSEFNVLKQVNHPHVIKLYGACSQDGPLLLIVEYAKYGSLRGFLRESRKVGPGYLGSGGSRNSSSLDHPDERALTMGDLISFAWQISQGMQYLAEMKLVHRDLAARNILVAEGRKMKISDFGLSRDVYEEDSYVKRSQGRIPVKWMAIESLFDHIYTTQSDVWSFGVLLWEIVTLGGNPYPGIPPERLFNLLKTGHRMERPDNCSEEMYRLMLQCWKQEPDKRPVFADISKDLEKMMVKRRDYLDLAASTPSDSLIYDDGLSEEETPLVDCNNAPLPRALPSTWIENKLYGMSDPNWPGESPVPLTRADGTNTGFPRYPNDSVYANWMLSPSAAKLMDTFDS

IC50: 37 nM
SMILES: COCc1ccc(NC(=O)c2c(-c3ccc(C=O)cc3)c(C(C)C)n3ncnc(N)c23)cc1 [Example 10, 4-amino-6-(4-formylphenyl)-7-isopropyl-N-(4-(methoxymethyl)phenyl)pyrrolo[2,1-f][1,2,4]triazine-5-carboxamide]
